In US6645715B1, “Artificial cornea” (University of Ottawa, priority 1998, dated 2003):

Tests used:
reconstructed corneas [1] = assay: Responses of reconstructed corneas to aqueous test chemicals (wound, corneal transparency); type: cell-based, human; conditions: 10% SDS, 0.01% benzalkonium chloride solution
Experimental: Each cornea was exposed centrally to 100 μl of the test chemical for 10 min, after which the chemical was washed off with saline and the corneas were re-cultured for a further 3 days. The saline-treated cornea served as the control.

reconstructed corneas [2] = assay: Live-dead staining of reconstructed corneas after chemical exposure; type: cell-based, human; conditions: SDS; 0.01% benzalkonium chloride solution
Description: Live cells are green, while dying or dead cells are orange-red. […] C.

[3] = system: corneal epithelial cell lines and primary epithelial cells; assay: RT-PCR of mRNA expression in corneal epithelial cells after SDS exposure; type: cell-based, human
Description: Corneal epithelial cell lines were exposed to sodium dodecyl sulfate (SDS) to characterise the changes in mRNA expression of early response genes such as c-fos and c-jun, cytokines probably involved with corneal wound healing such as interleukins (IL-1a and IL-6), basic fibroblast growth factor (bFGF), vascular endothelial growth factor (VEGF) and epidermal growth factor (EGF), and matrix molecules that are elaborated during healing such as collagens types I, III and V. Reverse transcription-polymerase chain reaction (RT-PCR) was used to examine changes in expression of the above genes in corneal epithelial cell lines compared to primary cells, and in artificial corneas compared to human corneas from the eye bank after exposure to a detergent SDS. The cells were exposed to 0.02% SDS in M199 for 2 minutes. Corneas were treated with 5% SDS in M199. Controls were dosed with M199 only. RT-PCR was performed on RNA from cells and corneas obtained at different time points after injury. Semi-quantitative analyses were conducted by introducing the housekeeping gene, glyceraldehyde-3-phosphate dehydrogenase (GAPDH) as an internal control and by Southern analysis. PCR products were sequenced to confirm their identity. Baseline levels of the 10 mRNAs examined were established in control epithelial cells and corneas (n> or =6 for each time point). […] However, changes in MRNA expression for bFGF, VEGF, EGF and collagen III were non-significant.

reconstructed corneas [4] = assay: RT-PCR of gene expression in SDS-treated reconstructed corneas; type: cell-based, human; conditions: 5% SDS in M199; reconstructed whole corneas
Experimental: Band intensities for the indicated genes were quantitated by a phosphoimager and were divided by the intensity of the corresponding GAPDH band. Corneas were treated with 5% SDS in medium for 1 or 3 minutes, then washed twice with medium. Total RNA was extracted at 1 hour after the SDS treatment, and RT-PCR was carried out for specific primers for various genes. Reverse transcription-polymerase chain reaction (RT-PCR) was used to examine changes in expression of the above genes in corneal epithelial cell lines compared to primary cells, and in artificial corneas compared to human corneas from the eye bank after exposure to a detergent SDS. The cells were exposed to 0.02% SDS in M199 for 2 minutes. Corneas were treated with 5% SDS in M199. Controls were dosed with M199 only. RT-PCR was performed on RNA from cells and corneas obtained at different time points after injury. Semi-quantitative analyses were conducted by introducing the housekeeping gene, glyceraldehyde-3-phosphate dehydrogenase (GAPDH) as an internal control and by Southern analysis. PCR products were sequenced to confirm their identity. […] However, these changes were more marked in the reconstructed whole corneas than in the epithelial monolayers.

human eye bank corneas = assay: RT-PCR of gene expression in human eye bank corneas after SDS exposure; type: cell-based; conditions: 5% SDS in M199
Experimental: Reverse transcription-polymerase chain reaction (RT-PCR) was used to examine changes in expression of the above genes in corneal epithelial cell lines compared to primary cells, and in artificial corneas compared to human corneas from the eye bank after exposure to a detergent SDS. The cells were exposed to 0.02% SDS in M199 for 2 minutes. Corneas were treated with 5% SDS in M199. Controls were dosed with M199 only. RT-PCR was performed on RNA from cells and corneas obtained at different time points after injury. Semi-quantitative analyses were conducted by introducing the housekeeping gene, glyceraldehyde-3-phosphate dehydrogenase (GAPDH) as an internal control and by Southern analysis. PCR products were sequenced to confirm their identity.

[5] = 0.02% SDS in M199 for 2 minutes, within 1 hour of injury, primary epithelial cells and cell lines

CCCCCCCCCCCCOS(=O)(=O)[O-].[Na+] [SDS, sodium dodecyl sulfate] was tested, and the “wound / change of corneal transparency” value (reconstructed corneas [1]; 100 μl centrally for 10 min, washed off with saline, re-cultured 3 days) was “caused wounds to the centre of the cornea”, the “healing of the wound” value (reconstructed corneas [1]; 100 μl for 10 min, re-cultured a further 3 days) was “still unhealed” and the “live-dead staining, epithelial cells” value (reconstructed corneas [2]) was “mostly dead and dying cells”. The “live-dead staining, stromal cells” value (reconstructed corneas [2]) was “orange-red dead or dying cells”, the “penetration into the stromal compartment” value (reconstructed corneas [2]) was “penetration of the detergent into the stroma” and the “IL-1a mRNA expression” value ([3]; 0.02% SDS for 2 minutes) was “increased expression”. The “IL-6 mRNA expression” value ([3]; 0.02% SDS for 2 minutes) was “increased expression”, the “changes in mRNA expression for EGF” value ([3]; 0.02% SDS for 2 minutes) was “non-significant” and the “changes in mRNA expression for VEGF” value ([3]; 0.02% SDS for 2 minutes) was “non-significant”. For the same molecule, the “changes in mRNA expression for bFGF” value ([3]; 0.02% SDS for 2 minutes) was “non-significant”, the “changes in mRNA expression for collagen III” value ([3]; 0.02% SDS for 2 minutes) was “non-significant” and the “collagen I mRNA expression” value ([3]; 0.02% SDS for 2 minutes) was “increased expression”. For the same molecule, the “collagen V mRNA expression” value ([3]; 0.02% SDS for 2 minutes) was “increased expression”, the “expression of c-fos, time course” value ([3]; 0.02% SDS for 2 minutes, 24 hours) was “returned to baseline levels by the end of 24 hours” and the “expression of c-jun, time course” value ([3]; 0.02% SDS for 2 minutes, until day 6) was “remained high until day 6 after injury”. For the same molecule, the expression of c-fos [3, 5] was “significantly increased”, the expression of c-jun [3, 5] was “significantly increased” and the “extent of changes in gene expression versus epithelial monolayers” value (reconstructed corneas [4]) was “more marked”. The “changes in gene expression” value (human eye bank corneas) was “responded to SDS exposure with changes in gene expression”.
